This experiment has as its system E. coli. Kind of experiment: Bacterial susceptibility testing, MIC by broth microdilution (CLSI). Particulars: for MIC: Escherichia coli, read-out: E. coli MIC, broth microdilution, 35° C., 18-24 h; for E. coli MIC: broth microdilution, 35° C., 18-24 h.

Converted amounts (≈) assume the structure as drawn.

The term MIC denotes the smallest concentration in the dilution series that meets the test's criterion for growth inhibition. For `O=c1[nH]cnc(CC(CO)c2ccc(C#Cc3ccc(CN[C@H]4CCOC4)cc3)cc2)c1O` (mixture of isomers) [Compound 8], the MIC is < 1 mg/L.
On to `O=c1[nH]cnc(CC(CO)c2ccc(C#Cc3ccc(CN[C@@H]4CCOC4)cc3)cc2)c1O` (mixture of isomers) [Compound 11], for which the MIC is < 1 mg/L.
On the same count and under the same terms, under `O=C(NCCF)C(Cc1nc[nH]c(=O)c1O)c1ccc(C#Cc2ccc(CN[C@H]3CCOC3)cc2)cc1` (mixture of isomers) [Compound 30] stands 1 to 8 mg/L.
Still for that read-out and setting: under `CC(CO)(Cc1nc[nH]c(=O)c1O)c1ccc(C#Cc2ccc(CN[C@H]3CCOC3)cc2)cc1` (mixture of isomers) [Compound 32] stands < 1 mg/L.
The same measure, in the same setting: under `O=c1[nH]cnc(CC(CO)c2ccc(C#Cc3ccc(CCN[C@H]4CCOC4)cc3)cc2)c1O` (mixture of isomers) [Compound 43] stands < 1 mg/L; under `O=C(CO)N1CC[C@@H](NCc2ccc(C#Cc3ccc(C(CO)Cc4nc[nH]c(=O)c4O)cc3)cc2)C1` (mixture of isomers) [Compound 44], < 1 mg/L; under `O=c1[nH]cnc(CC(CO)c2ccc(C#Cc3ccc(CN[C@@H]4CCNC4)cc3)cc2)c1O` (mixture of isomers) [Compound 62], 1 to 8 mg/L.
For the compound `COC1CN(Cc2ccc(C#Cc3ccc(C(CN[C@@H](C)CF)Cc4nc[nH]c(=O)c4O)cc3)cc2)C1` (mixture of isomers) [Compound 66], the minimal inhibitory concentration (MIC) is < 1 mg/L.
Same read-out and setting: under `C[C@@H](CF)NCC(Cc1nc[nH]c(=O)c1O)c1ccc(C#Cc2ccc(CN3CC4COCC4C3)cc2)cc1` (mixture of isomers) [Compound 84] stands < 1 mg/L; under `CO[C@@H]1CCN(Cc2ccc(C#Cc3ccc(C(CN[C@@H](C)CF)Cc4nc[nH]c(=O)c4O)cc3)cc2)C1` (mixture of isomers) [Compound 86], < 1 mg/L; under `CO[C@H]1CCN(Cc2ccc(C#Cc3ccc(C(CN[C@@H](C)CF)Cc4nc[nH]c(=O)c4O)cc3)cc2)C1` (mixture of isomers) [Compound 89], < 1 mg/L.
The same measure, in the same setting: under `C[C@@H](CF)NCC(Cc1nc[nH]c(=O)c1O)c1ccc(C#Cc2ccc(CN3CC[C@@H](C#N)C3)cc2)cc1` (mixture of isomers) [Compound 91] stands < 1 mg/L; under `C[C@@H](CF)NCC(Cc1nc[nH]c(=O)c1O)c1ccc(C#Cc2ccc(CN3CC[C@H](C#N)C3)cc2)cc1` (mixture of isomers) [Compound 92], < 1 mg/L.
Same read-out and setting: under `C[C@@H](CF)NCC(Cc1nc[nH]c(=O)c1O)c1ccc(C#Cc2ccc(CNC3COC3)cc2)cc1` (mixture of isomers) [Compound 94] stands < 1 mg/L; under `C[C@@H](CF)NCC(Cc1nc[nH]c(=O)c1O)c1ccc(C#Cc2ccc(CN3CC(CC#N)C3)cc2)cc1` (mixture of isomers) [Compound 95], < 1 mg/L; under `C[C@@H](CF)NCC(Cc1nc[nH]c(=O)c1O)c1ccc(C#Cc2ccc(CN[C@@H]3CCOC3)cc2)cc1` (mixture of isomers) [Compound 108], < 1 mg/L.
In the case of `C[C@@H](CF)NCC(Cc1nc[nH]c(=O)c1O)c1ccc(C#Cc2ccc(CN[C@H]3CCOC3)cc2)cc1` (mixture of isomers) [Compound 110], the MIC was < 1 mg/L.
On the same count and under the same terms, under `N#C[C@H]1CCN(Cc2ccc(C#Cc3ccc(C(CNCC(F)F)Cc4nc[nH]c(=O)c4O)cc3)cc2)C1` (mixture of isomers) [Compound 123] stands < 1 mg/L; under `C[C@@H](CF)NCC(Cc1nc[nH]c(=O)c1O)c1ccc(C#Cc2ccc(CN3CC4(COC4)C3)cc2)cc1` (mixture of isomers) [Compound 124], 1 to 8 mg/L; under `CO[C@@H]1CCN(Cc2ccc(C#Cc3ccc(C(CNCC(C)Cl)Cc4nc[nH]c(=O)c4O)cc3)cc2)C1` (mixture of isomers) [Compound 125], 1 to 8 mg/L.
Still for that read-out and setting: under `C[C@@H](CF)NCC(Cc1nc[nH]c(=O)c1O)c1ccc(C#Cc2ccc(CN3CC(C4COC4)C3)cc2)cc1` (mixture of isomers) [Compound 126] stands 1 to 8 mg/L; under `C[C@@H](CF)NCC(Cc1nc[nH]c(=O)c1O)c1ccc(C#Cc2ccc(CN3CC4(CCOC4)C3)cc2)cc1` (mixture of isomers) [Compound 127], 1 to 8 mg/L; under `C[C@@H](CF)NCC(Cc1nc[nH]c(=O)c1O)c1ccc(C#Cc2ccc(CN3CC4(CCO4)C3)cc2)cc1` (mixture of isomers) [Compound 132], < 1 mg/L.
`CO[C@@H]1CCN(Cc2ccc(C#Cc3ccc(C(CNCC(C)F)Cc4nc[nH]c(=O)c4O)cc3)cc2)C1` (mixture of isomers) [Compound 135]: the “E. coli MIC” value is reported as “B (B: >1 μg/mL to ≤8.0 μg/mL)”.
Consider `COC1CN(Cc2ccc(C#Cc3ccc(C(C)(CN[C@@H](C)CF)Cc4nc[nH]c(=O)c4O)cc3)cc2)C1` (mixture of isomers) [Compound 143], for which the MIC was < 1 mg/L.
The same measure, in the same setting: under `C[C@@H](CO)NCC(Cc1nc[nH]c(=O)c1O)c1ccc(C#Cc2ccc(CN[C@H]3CCOC3)cc2)cc1` (mixture of isomers) [Compound 144] stands 1 to 8 mg/L; under `NC[C@@H]1CCCN1Cc1ccc(C#Cc2ccc(C(CO)Cc3nc[nH]c(=O)c3O)cc2)cc1` (mixture of isomers) [Compound 145], 1 to 8 mg/L.
As for `NC[C@H]1CCCN1Cc1ccc(C#Cc2ccc(C(CO)Cc3nc[nH]c(=O)c3O)cc2)cc1` (mixture of isomers) [Compound 148], the MIC was 1 to 8 mg/L.
The same measure, in the same setting: under `N=[S@]1(=O)CC[C@@H](NCc2ccc(C#Cc3ccc(C(CO)Cc4nc[nH]c(=O)c4O)cc3)cc2)C1` (mixture of isomers) [Compound 150] stands 1 to 8 mg/L; under `N=[S@@]1(=O)CC[C@H](NCc2ccc(C#Cc3ccc(C(CO)Cc4nc[nH]c(=O)c4O)cc3)cc2)C1` (mixture of isomers) [Compound 151], 1 to 8 mg/L; under `O=C(CO)N(Cc1ccc(C#Cc2ccc(C(CO)Cc3nc[nH]c(=O)c3O)cc2)cc1)[C@@H]1CCNC1` (mixture of isomers) [Compound 154], 8 to 32 mg/L.
As for `O=c1[nH]cnc(CC(CO)c2ccc(C#Cc3ccc(CN[C@@H]4CCN(CCO)C4)cc3)cc2)c1O` (mixture of isomers) [Compound 155], the MIC was in the range of 1 to 8 mg/L.
The same measure, in the same setting: under `O=C(O)CN1CC[C@@H](NCc2ccc(C#Cc3ccc(C(CO)Cc4nc[nH]c(=O)c4O)cc3)cc2)C1` (mixture of isomers) [Compound 156] stands > 32 mg/L.
Same read-out and setting: under `O=C(CO)NC[C@@H]1CCCN1Cc1ccc(C#Cc2ccc(C(CO)Cc3nc[nH]c(=O)c3O)cc2)cc1` (mixture of isomers) [Compound 158] stands 1 to 8 mg/L; under `O=c1[nH]cnc(CC(CN[C@H]2CCOC2)c2ccc(C#Cc3ccc(CN4CCOCC4)cc3)cc2)c1O` (mixture of isomers) [Compound 166], < 1 mg/L; under `C[C@@H](CO)NCC(Cc1nc[nH]c(=O)c1O)c1ccc(C#Cc2ccc(CN3CCOCC3)cc2)cc1` (mixture of isomers) [Compound 167], < 1 mg/L.
Regarding `NC(Cc1nc[nH]c(=O)c1O)c1ccc(C#Cc2ccc(CN[C@@H]3CCOC3)cc2)cc1` (mixture of isomers) [Compound 173], the MIC was < 1 mg/L.
Still for that read-out and setting: under `O=c1[nH]cnc(CC(CO)c2ccc(/C=C/c3ccc(CN[C@H]4CCOC4)cc3)cc2)c1O` (mixture of isomers) [Compound 198] stands 8 to 32 mg/L; under `CC(=O)N1CC[C@@H](NCc2ccc(C#Cc3ccc(C(CO)Cc4nc[nH]c(=O)c4O)cc3)cc2)C1` (mixture of isomers) [Compound 232], < 1 mg/L.
The same measure, in the same setting: under `O=C(N[C@@H]1CCN(Cc2ccc(C#Cc3ccc(C(CO)Cc4nc[nH]c(=O)c4O)cc3)cc2)C1)C1CC1` (mixture of isomers) [Compound 256] stands < 1 mg/L.
Same read-out and setting: under `O=C(CO)N[C@@H]1CCN(Cc2ccc(C#Cc3ccc(C(CO)Cc4nc[nH]c(=O)c4O)cc3)cc2)C1` (mixture of isomers) [Compound 257] stands 1 to 8 mg/L.
As for `CN(Cc1ccc(C#Cc2ccc(C(CO)Cc3nc[nH]c(=O)c3O)cc2)cc1)[C@@H]1CCNC1` (mixture of isomers) [Compound 260], the MIC was in the range of 1 to 8 mg/L.
In the case of `CN1CC[C@@H](NCc2ccc(C#Cc3ccc(C(CO)Cc4nc[nH]c(=O)c4O)cc3)cc2)C1` (mixture of isomers) [Compound 261], the MIC is 1 to 8 mg/L.
On the same count and under the same terms, under `NCC(=O)N1CC[C@@H](NCc2ccc(C#Cc3ccc(C(CO)Cc4nc[nH]c(=O)c4O)cc3)cc2)C1` (mixture of isomers) [Compound 262] stands 8 to 32 mg/L; under `CNC(Cc1nc[nH]c(=O)c1O)c1ccc(C#Cc2ccc(CN[C@@H]3CCOC3)cc2)cc1` (mixture of isomers) [Compound 265], < 1 mg/L; under `O=c1[nH]cnc(CC(O)c2ccc(C#Cc3ccc(CN[C@@H]4CCOC4)cc3)cc2)c1O` (mixture of isomers) [Compound 271], < 1 mg/L.
Still for that read-out and setting: under `N[C@@H]1CCN(Cc2ccc(C#Cc3ccc(C(CO)Cc4nc[nH]c(=O)c4O)cc3)cc2)C1` (mixture of isomers) [Compound 292] stands 1 to 8 mg/L.
On the same count and under the same terms, under `C[C@@H](CF)NCC(Cc1nc[nH]c(=O)c1O)c1ccc(C#Cc2ccc(CCN3CCOCC3)cc2)cc1` (mixture of isomers) [Compound 294] stands < 1 mg/L.
Turning to `O=c1[nH]cnc(CC(CO)c2ccc(C#Cc3ccc(CN[C@H]4CCOC4)cc3)cc2)c1O` (single isomer, unassigned) [Compound 9], the “E. coli MIC” value was “B (B: >1 μg/mL to ≤8.0 μg/mL)”.
Same read-out and setting: under `O=c1[nH]cnc(CC(CO)c2ccc(C#Cc3ccc(CN[C@H]4CCOC4)cc3)cc2)c1O` (single isomer, unassigned) [Compound 10] stands “A (A: ≤1 μg/mL)”.
Consider `O=c1[nH]cnc(CC(CO)c2ccc(C#Cc3ccc(CN[C@H]4CCS(=O)(=O)C4)cc3)cc2)c1O` (single isomer, unassigned) [Compound 39], for which the MIC is < 1 mg/L.
Same read-out and setting: under `O=c1[nH]cnc(CC(CO)c2ccc(C#Cc3ccc(CN[C@@H]4CCS(=O)(=O)C4)cc3)cc2)c1O` (single isomer, unassigned) [Compound 40] stands 1 to 8 mg/L (≈ 2.03 to 16.2 µM).
For the compound `O=C(CO)N1CC[C@@H](NCc2ccc(C#Cc3ccc(C(CO)Cc4nc[nH]c(=O)c4O)cc3)cc2)C1` (single isomer, unassigned) [Compound 45], the “E. coli MIC” value is given as “B (B: >1 μg/mL to ≤8.0 μg/mL)”.

Values taken from US11407740B2 (priority 2018, dated 2022).
